Measured values from the supplement of paper PMC10307832.

How the values were obtained:
Assay in all cases: relative viability (nuclei count vs DMSO), 5 days (fraction); higher = more cells survive
Imatinib + Phenformin = compound: Cc1ccc(NC(=O)c2ccc(CN3CCN(C)CC3)cc2)cc1Nc1nccc(-c2cccnc2)n1 [Imatinib] + N=C(N)NC(=N)NCCc1ccccc1 [Phenformin] (partner 250 µM)
How it was run: (§1)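 Relative viability is defined as nuclei in treated wells over nuclei in vehicle wells. Duplicate plates were run and medians reported. Lung cancer cell lines in 1536-well plates were dosed by pin tool one day after seeding, with one drug or with a fixed anchor-drug dose plus five library-drug doses (not always all listed) in √10 steps, and nuclei were counted after 5 days.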

Imatinib + Dasatinib = compound: Cc1ccc(NC(=O)c2ccc(CN3CCN(C)CC3)cc2)cc1Nc1nccc(-c2cccnc2)n1 [Imatinib] + Cc1nc(Nc2ncc(C(=O)Nc3c(C)cccc3Cl)s2)cc(N2CCN(CCO)CC2)n1 [Dasatinib] (partner 0.075 µM)
How it was run: as §1

Imatinib + Pemetrexed = compound: Cc1ccc(NC(=O)c2ccc(CN3CCN(C)CC3)cc2)cc1Nc1nccc(-c2cccnc2)n1 [Imatinib] + Nc1nc2[nH]cc(CCc3ccc(C(=O)N[C@@H](CCC(=O)O)C(=O)O)cc3)c2c(=O)[nH]1 [Pemetrexed] (partner 0.2 µM)
How it was run: as §1

Imatinib + Foretinib = compound: Cc1ccc(NC(=O)c2ccc(CN3CCN(C)CC3)cc2)cc1Nc1nccc(-c2cccnc2)n1 [Imatinib] + COc1cc2c(Oc3ccc(NC(=O)C4(C(=O)Nc5ccc(F)cc5)CC4)cc3F)ccnc2cc1OCCCN1CCOCC1 [Foretinib] (partner 0.25 µM)
How it was run: as §1

| Cell Line | relative viability (Imatinib + Phenformin; first compound 0.02 µM) | relative viability (Imatinib + Phenformin; first compound 0.2 µM) | relative viability (Imatinib + Phenformin; first compound 0.6325 µM) | relative viability (Imatinib + Phenformin; first compound 2 µM) | relative viability (Imatinib + Dasatinib; first compound 0.02 µM) | relative viability (Imatinib + Dasatinib; first compound 0.2 µM) | relative viability (Imatinib + Dasatinib; first compound 0.6325 µM) | relative viability (Imatinib + Dasatinib; first compound 2 µM) | relative viability (Imatinib + Pemetrexed; first compound 0.02 µM) | relative viability (Imatinib + Pemetrexed; first compound 0.06325 µM) | relative viability (Imatinib + Pemetrexed; first compound 0.2 µM) | relative viability (Imatinib + Pemetrexed; first compound 0.6325 µM) | relative viability (Imatinib + Pemetrexed; first compound 2 µM) | relative viability (Imatinib + Foretinib; first compound 0.02 µM) | relative viability (Imatinib + Foretinib; first compound 0.2 µM) | relative viability (Imatinib + Foretinib; first compound 0.6325 µM) | relative viability (Imatinib + Foretinib; first compound 2 µM) | relative viability (Imatinib + Phenformin; first compound 0.06325 µM) | relative viability (Imatinib + Dasatinib; first compound 0.06325 µM) | relative viability (Imatinib + Foretinib; first compound 0.06325 µM) |
| --- | --- | --- | --- | --- | --- | --- | --- | --- | --- | --- | --- | --- | --- | --- | --- | --- | --- | --- | --- | --- |
| 201T | 0.433 | 0.469 | 0.435 | 0.437 | 0.594 | 0.625 | 0.61 | 0.496 | 0.317 | 0.24 | 0.391 | 0.284 | 0.31 | 1.21 | 1.06 | 1.04 | 1.12 | – | – | – |
| A-427 | 0.327 | 0.316 | 0.27 | 0.237 | – | 0.798 | 0.805 | 0.714 | 1.05 | 1.08 | 1.02 | – | 0.971 | 1.13 | 1 | 0.946 | 1.01 | – | – | – |
| ABC-1 | 0.252 | 0.224 | 0.305 | 0.187 | 0.624 | 0.689 | 0.522 | 0.523 | – | – | – | – | – | 0.739 | 0.904 | 1.13 | 0.922 | – | – | – |
| BEN | 0.257 | 0.258 | 0.287 | 0.243 | 0.312 | 0.307 | 0.339 | 0.296 | 0.832 | 0.835 | 0.691 | 0.89 | 0.879 | 0.774 | 0.564 | 0.701 | 0.602 | – | – | – |
| CAL-12T | 0.558 | 0.674 | 0.618 | 0.555 | 0.625 | 0.612 | 0.503 | 0.51 | 1.35 | 1.33 | 1.25 | 1.32 | 1.28 | 1.09 | 1.1 | 1.16 | 1.16 | – | – | – |
| COR-L23 | 0.469 | 0.496 | 0.419 | 0.422 | 0.555 | 0.43 | 0.591 | 0.539 | 0.196 | 0.206 | 0.209 | 0.196 | 0.159 | – | 1.01 | 0.984 | 1.01 | 0.541 | 0.451 | 1 |
| COR-L 105 | 0.51 | 0.453 | 0.497 | 0.373 | 0.324 | 0.277 | 0.308 | 0.287 | 1.33 | 1.27 | 1.13 | 1.06 | 0.983 | 1.2 | – | 0.948 | 1.08 | 0.632 | 0.335 | 1.23 |
| Calu-6 | – | – | – | – | – | – | – | – | – | – | – | – | – | 1.08 | 1.01 | 0.925 | 0.891 | – | – | 1.01 |
| ChaGo-K-1 | 0.425 | 0.505 | 0.426 | 0.432 | 0.58 | 0.522 | 0.515 | 0.579 | 0.263 | – | 0.255 | 0.268 | 0.251 | 0.921 | 0.916 | 0.916 | 0.958 | 0.485 | 0.51 | 0.936 |
| EBC-1 | – | – | – | – | – | – | – | – | – | – | – | – | – | 0.114 | 0.109 | 0.0904 | 0.0924 | – | – | 0.108 |
| EKVX | – | 0.22 | 0.226 | 0.242 | 0.58 | 0.549 | 0.502 | 0.505 | 0.442 | – | 0.509 | 0.391 | – | – | 0.68 | 0.736 | 0.988 | 0.249 | – | 0.585 |
| EMC-BAC-2 | 0.572 | 0.555 | 0.467 | 0.46 | 0.337 | 0.322 | 0.327 | 0.308 | 0.443 | 0.483 | 0.447 | 0.507 | 0.424 | 1.05 | 1.09 | 0.973 | 1.02 | 0.632 | 0.349 | 1.12 |
| EPLC-272H | 0.308 | 0.273 | 0.322 | 0.442 | 0.393 | 0.367 | 0.311 | 0.289 | 0.261 | – | – | 0.328 | 0.336 | 0.938 | 0.819 | 0.558 | 0.59 | – | – | – |
| H3255 | 0.326 | 0.378 | 0.335 | 0.376 | 0.443 | 0.351 | 0.361 | 0.258 | 0.536 | 0.499 | 0.554 | 0.565 | 0.573 | 0.791 | – | 0.914 | 0.709 | 0.377 | 0.346 | 0.405 |
| HARA | 0.57 | 0.439 | 0.39 | 0.387 | 0.309 | 0.279 | 0.217 | 0.27 | 0.256 | 0.235 | 0.23 | 0.286 | 0.227 | 0.836 | 0.976 | 0.886 | 0.971 | – | – | – |
| HCC-15 | 0.502 | 0.518 | 0.451 | 0.433 | 0.722 | 0.668 | 0.594 | 0.598 | 0.225 | 0.234 | 0.236 | 0.218 | 0.211 | 1.14 | 1.05 | 0.987 | 1.09 | – | – | – |
| HCC-44 | 0.252 | 0.222 | 0.196 | 0.192 | – | – | – | – | 0.653 | – | 0.68 | 0.671 | 0.544 | – | – | – | – | 0.22 | – | – |
| HCC-78 | 0.695 | 0.719 | 0.591 | 0.641 | 0.343 | 0.403 | 0.35 | 0.343 | 0.865 | 0.955 | 0.949 | 0.916 | 0.882 | 0.654 | 0.534 | 0.44 | 0.56 | 0.674 | 0.355 | 0.577 |
| HCC-366 | 0.64 | 0.637 | 0.631 | 0.579 | 0.805 | 0.822 | 0.648 | 0.584 | 0.178 | 0.197 | 0.189 | 0.173 | 0.128 | 0.998 | 0.942 | 0.982 | 1.01 | – | – | – |
| HCC-827 | 0.432 | 0.475 | 0.37 | 0.403 | 0.287 | 0.239 | 0.151 | 0.272 | 0.283 | 0.285 | 0.249 | 0.267 | 0.255 | 1.05 | 1.05 | 1.04 | 0.962 | 0.481 | 0.269 | 1.04 |
